The kinase profiling compilation of Christmann-Franck et al. (2016)

Assays:
Assay in all cases: radiometric filter-binding kinase assay, Kinase HotSpot
Details in all cases: compound 0.5 µM; ATP 10 µM
MAPK14 (human) = MAPK14 (human) (UniProt Q16539)
YES1 (human) = YES1 (human) (UniProt P07947)
CAMK1D (human) = CAMK1D (human) (UniProt Q8IU85)
NLK (human) = NLK (human) (UniProt Q9UBE8)
SRPK2 (human) = SRPK2 (human) (UniProt P78362)
NEK11 (human) = NEK11 (human) (UniProt Q8NG66)
DYRK2 (human) = DYRK2 (human) (UniProt Q92630)
PTK2 (human) = PTK2 (human) (UniProt Q05397)
MST1R (human) = MST1R (human) (UniProt Q04912)
CSNK2A1 (human) = CSNK2A1 (human) (UniProt P68400)
PDPK1 (human) = PDPK1 (human) (UniProt O15530)
TGFBR1 (human) = TGFBR1 (human) (UniProt P36897)
TEK (human) = TEK (human) (UniProt Q02763)
LTK (human) = LTK (human) (UniProt P29376)
CSNK1G2 (human) = CSNK1G2 (human) (UniProt P78368)
Sequence of CSNK1G2 (human) (P78368 whole entry, looked up): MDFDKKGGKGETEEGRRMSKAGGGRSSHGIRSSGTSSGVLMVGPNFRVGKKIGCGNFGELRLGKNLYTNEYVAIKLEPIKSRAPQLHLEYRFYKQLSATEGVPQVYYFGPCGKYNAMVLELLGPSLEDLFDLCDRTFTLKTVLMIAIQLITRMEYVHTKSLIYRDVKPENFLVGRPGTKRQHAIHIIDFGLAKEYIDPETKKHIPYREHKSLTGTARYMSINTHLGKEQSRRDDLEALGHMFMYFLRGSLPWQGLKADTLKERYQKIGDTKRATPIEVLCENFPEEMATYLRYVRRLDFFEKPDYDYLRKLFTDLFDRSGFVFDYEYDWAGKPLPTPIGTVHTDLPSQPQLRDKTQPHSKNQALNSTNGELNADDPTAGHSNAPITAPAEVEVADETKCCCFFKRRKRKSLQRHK

PRKCB2 (human) = PRKCB2 (human) (UniProt P05771)
Sequence of PRKCB2 (human) (P05771 whole entry, looked up): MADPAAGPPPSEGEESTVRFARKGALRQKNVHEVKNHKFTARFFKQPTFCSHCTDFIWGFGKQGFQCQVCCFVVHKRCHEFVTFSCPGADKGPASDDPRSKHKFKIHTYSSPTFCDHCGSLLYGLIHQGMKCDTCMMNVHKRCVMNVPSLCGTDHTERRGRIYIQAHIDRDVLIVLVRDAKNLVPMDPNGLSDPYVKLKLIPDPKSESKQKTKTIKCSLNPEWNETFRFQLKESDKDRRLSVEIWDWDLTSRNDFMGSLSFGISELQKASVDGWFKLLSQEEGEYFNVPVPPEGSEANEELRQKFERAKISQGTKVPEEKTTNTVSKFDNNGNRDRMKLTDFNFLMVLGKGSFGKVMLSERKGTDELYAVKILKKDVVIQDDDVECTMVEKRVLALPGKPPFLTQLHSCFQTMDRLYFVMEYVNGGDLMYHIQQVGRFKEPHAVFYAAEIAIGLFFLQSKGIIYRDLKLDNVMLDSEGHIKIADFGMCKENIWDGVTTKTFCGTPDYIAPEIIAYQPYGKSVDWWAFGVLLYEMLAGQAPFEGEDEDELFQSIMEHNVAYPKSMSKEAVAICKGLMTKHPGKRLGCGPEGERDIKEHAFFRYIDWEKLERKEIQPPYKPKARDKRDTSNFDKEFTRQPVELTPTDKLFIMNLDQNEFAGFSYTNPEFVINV

LRRK2 (human) = LRRK2 (human) (UniProt Q5S007)
CAMK4 (human) = CAMK4 (human) (UniProt Q16566)
MAP3K9 (human) = MAP3K9 (human) (UniProt P80192)
Sequence of MAP3K9 (human) (P80192 whole entry, looked up): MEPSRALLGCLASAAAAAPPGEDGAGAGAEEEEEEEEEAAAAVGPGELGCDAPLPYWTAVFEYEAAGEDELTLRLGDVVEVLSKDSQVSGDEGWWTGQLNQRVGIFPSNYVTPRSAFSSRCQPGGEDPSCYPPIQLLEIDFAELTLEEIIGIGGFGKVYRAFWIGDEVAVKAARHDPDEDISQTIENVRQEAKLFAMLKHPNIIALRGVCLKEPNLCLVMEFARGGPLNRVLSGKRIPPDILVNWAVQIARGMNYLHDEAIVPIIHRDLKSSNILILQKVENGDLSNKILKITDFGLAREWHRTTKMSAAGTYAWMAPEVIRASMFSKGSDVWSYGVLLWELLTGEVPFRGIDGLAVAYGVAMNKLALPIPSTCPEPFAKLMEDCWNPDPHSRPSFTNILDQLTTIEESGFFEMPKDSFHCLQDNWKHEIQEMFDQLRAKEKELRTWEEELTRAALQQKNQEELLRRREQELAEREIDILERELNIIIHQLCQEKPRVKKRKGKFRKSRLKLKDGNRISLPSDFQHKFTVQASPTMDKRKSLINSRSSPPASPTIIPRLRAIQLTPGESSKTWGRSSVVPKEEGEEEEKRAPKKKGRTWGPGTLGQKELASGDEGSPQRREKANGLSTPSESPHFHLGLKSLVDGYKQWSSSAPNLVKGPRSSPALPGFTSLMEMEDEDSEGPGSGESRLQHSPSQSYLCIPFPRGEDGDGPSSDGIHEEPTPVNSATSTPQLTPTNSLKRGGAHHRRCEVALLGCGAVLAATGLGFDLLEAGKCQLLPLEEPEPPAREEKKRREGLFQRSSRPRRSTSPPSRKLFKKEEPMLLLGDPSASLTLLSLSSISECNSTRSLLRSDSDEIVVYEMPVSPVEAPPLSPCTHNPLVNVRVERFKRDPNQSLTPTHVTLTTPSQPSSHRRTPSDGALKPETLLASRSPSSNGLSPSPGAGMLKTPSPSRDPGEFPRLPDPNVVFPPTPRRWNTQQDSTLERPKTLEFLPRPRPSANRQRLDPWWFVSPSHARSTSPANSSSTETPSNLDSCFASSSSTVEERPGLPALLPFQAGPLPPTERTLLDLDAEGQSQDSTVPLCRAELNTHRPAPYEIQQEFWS

SRMS (human) = SRMS (human) (UniProt Q9H3Y6)
HCK (human) = HCK (human) (UniProt P08631)
MAPK8 (human) = MAPK8 (human) (UniProt P45983)
Sequence of MAPK8 (human) (P45983 whole entry, looked up): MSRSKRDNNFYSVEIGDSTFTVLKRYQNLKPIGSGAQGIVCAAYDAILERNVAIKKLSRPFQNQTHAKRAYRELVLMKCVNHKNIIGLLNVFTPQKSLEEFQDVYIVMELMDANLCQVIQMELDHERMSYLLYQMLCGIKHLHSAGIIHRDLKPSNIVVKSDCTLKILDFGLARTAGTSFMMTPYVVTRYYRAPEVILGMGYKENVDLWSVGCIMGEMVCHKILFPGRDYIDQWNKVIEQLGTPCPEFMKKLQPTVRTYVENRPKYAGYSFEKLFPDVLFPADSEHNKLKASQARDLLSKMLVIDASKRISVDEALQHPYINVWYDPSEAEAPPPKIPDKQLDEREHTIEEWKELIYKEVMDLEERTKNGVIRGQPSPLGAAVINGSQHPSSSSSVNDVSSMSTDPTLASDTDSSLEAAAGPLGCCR

GRK5 (human) = GRK5 (human) (UniProt P34947)
WNK2 (human) = WNK2 (human) (UniProt Q9Y3S1)
TYRO3 (human) = TYRO3 (human) (UniProt Q06418)
MELK (human) = MELK (human) (UniProt Q14680)
PRKCZ (human) = PRKCZ (human) (UniProt Q05513)
SIK2 (human) = SIK2 (human) (UniProt Q9H0K1)
Sequence of SIK2 (human) (Q9H0K1 whole entry, looked up): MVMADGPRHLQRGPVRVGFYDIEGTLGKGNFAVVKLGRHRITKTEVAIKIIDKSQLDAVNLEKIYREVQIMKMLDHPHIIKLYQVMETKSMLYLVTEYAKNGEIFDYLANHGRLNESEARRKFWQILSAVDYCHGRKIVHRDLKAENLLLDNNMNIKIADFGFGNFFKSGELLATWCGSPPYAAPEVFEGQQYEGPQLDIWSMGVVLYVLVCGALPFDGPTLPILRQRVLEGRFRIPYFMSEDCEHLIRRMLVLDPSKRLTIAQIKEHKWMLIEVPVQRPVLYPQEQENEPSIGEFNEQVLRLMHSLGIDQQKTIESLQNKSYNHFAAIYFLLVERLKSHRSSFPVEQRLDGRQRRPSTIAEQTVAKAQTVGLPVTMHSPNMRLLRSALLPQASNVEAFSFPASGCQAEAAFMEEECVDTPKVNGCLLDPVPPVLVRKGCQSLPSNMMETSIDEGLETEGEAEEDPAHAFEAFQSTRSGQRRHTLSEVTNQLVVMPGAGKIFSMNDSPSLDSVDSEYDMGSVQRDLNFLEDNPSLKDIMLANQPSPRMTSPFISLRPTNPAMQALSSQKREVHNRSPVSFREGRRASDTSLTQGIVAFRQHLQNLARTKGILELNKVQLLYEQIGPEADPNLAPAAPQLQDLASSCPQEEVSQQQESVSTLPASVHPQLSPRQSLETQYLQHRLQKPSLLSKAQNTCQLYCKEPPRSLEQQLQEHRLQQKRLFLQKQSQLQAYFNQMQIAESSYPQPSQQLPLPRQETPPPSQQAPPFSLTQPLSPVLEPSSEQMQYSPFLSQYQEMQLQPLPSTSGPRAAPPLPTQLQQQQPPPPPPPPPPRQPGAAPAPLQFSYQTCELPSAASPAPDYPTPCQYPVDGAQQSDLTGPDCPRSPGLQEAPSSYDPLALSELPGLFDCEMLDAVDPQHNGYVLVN

FGFR2 (human) = FGFR2 (human) (UniProt P21802)
MAPK10 (human) = MAPK10 (human) (UniProt P53779)
PAK4 (human) = PAK4 (human) (UniProt O96013)
TSSK1B (human) = TSSK1B (human) (UniProt Q9BXA7)
NEK2 (human) = NEK2 (human) (UniProt P51955)
RPS6KA1 KD1 KD2 (human) = RPS6KA1 KD1 KD2 (human) (UniProt Q15418)
PKN1 (human) = PKN1 (human) (UniProt Q16512)
CAMKK1 (human) = CAMKK1 (human) (UniProt Q8N5S9)
CDK4 CCND1 (human) = CDK4 CCND1 (human) (UniProt P24385+P11802)
RPS6KB2 (human) = RPS6KB2 (human) (UniProt Q9UBS0)
MAPK12 (human) = MAPK12 (human) (UniProt P53778)
Sequence of MAPK12 (human) (P53778 whole entry, looked up): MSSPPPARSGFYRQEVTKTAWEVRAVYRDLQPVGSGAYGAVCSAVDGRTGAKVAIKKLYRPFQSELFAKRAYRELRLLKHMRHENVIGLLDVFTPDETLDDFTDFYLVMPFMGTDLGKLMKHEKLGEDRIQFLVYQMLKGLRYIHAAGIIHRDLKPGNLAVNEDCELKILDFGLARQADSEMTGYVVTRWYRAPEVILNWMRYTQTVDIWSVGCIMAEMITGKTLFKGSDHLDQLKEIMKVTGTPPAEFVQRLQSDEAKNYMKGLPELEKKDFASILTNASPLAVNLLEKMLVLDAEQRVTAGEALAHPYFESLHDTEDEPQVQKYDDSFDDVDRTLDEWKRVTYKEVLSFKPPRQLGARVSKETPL

TAOK3 (human) = TAOK3 (human) (UniProt Q9H2K8)
Sequence of TAOK3 (human) (Q9H2K8 whole entry, looked up): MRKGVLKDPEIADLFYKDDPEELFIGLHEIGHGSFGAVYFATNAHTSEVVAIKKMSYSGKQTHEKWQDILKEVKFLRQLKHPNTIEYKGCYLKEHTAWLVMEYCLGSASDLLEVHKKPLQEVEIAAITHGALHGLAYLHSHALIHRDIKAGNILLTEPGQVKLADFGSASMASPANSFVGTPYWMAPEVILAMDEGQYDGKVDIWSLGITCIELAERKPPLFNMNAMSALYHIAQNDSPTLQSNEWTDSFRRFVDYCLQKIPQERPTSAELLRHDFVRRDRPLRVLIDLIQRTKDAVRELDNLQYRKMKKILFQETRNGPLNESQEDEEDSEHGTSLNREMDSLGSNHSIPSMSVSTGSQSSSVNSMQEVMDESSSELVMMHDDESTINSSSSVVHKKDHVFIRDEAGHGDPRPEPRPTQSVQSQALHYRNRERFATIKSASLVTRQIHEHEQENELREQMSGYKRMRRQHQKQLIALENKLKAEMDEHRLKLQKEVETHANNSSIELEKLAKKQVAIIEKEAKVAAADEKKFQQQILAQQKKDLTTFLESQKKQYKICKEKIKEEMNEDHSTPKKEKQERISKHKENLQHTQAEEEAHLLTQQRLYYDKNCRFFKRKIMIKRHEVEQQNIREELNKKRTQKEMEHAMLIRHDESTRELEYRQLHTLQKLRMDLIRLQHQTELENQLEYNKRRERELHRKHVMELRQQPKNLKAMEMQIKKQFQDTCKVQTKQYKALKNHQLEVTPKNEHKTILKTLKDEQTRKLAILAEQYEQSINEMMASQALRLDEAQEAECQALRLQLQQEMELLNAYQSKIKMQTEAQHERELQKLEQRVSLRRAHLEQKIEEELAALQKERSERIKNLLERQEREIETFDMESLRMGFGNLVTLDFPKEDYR

SGK2 (human) = SGK2 (human) (UniProt Q9HBY8)
WEE1 (human) = WEE1 (human) (UniProt P30291)

## CCCNC(=O)Nc1ccc(Oc2ncnc3cc(OC)c(OC)cc23)cc1Cl
MAPK14 (human)
  residual activity: 122%
YES1 (human)
  residual activity: 82.1%
CAMK1D (human)
  residual activity: 96.8%
NLK (human)
  residual activity: 90.7%
SRPK2 (human)
  residual activity: 91.1%
NEK11 (human)
  residual activity: 101%
DYRK2 (human)
  residual activity: 108%
PTK2 (human)
  residual activity: 99.6%
MST1R (human)
  residual activity: 89.3%
CSNK2A1 (human)
  residual activity: 105%
PDPK1 (human)
  residual activity: 86.8%
TGFBR1 (human)
  residual activity: 102%
TEK (human)
  residual activity: 87%
LTK (human)
  residual activity: 95.7%
CSNK1G2 (human)
  residual activity: 84.8%
PRKCB2 (human)
  residual activity: 93.6%
LRRK2 (human)
  residual activity: 94.1%
CAMK4 (human)
  residual activity: 99.1%
MAP3K9 (human)
  residual activity: 88.9%
SRMS (human)
  residual activity: 105%
HCK (human)
  residual activity: 88.7%
MAPK8 (human)
  residual activity: 107%
GRK5 (human)
  residual activity: 105%
WNK2 (human)
  residual activity: 100%
TYRO3 (human)
  residual activity: 102%
MELK (human)
  residual activity: 86.8%
PRKCZ (human)
  residual activity: 102%
SIK2 (human)
  residual activity: 101%
FGFR2 (human)
  residual activity: 91.3%
MAPK10 (human)
  residual activity: 100%
PAK4 (human)
  residual activity: 95.7%
TSSK1B (human)
  residual activity: 80.4%
NEK2 (human)
  residual activity: 92.3%
RPS6KA1 KD1 KD2 (human)
  residual activity: 92.3%
PKN1 (human)
  residual activity: 99.1%
CAMKK1 (human)
  residual activity: 93.1%
CDK4 CCND1 (human)
  residual activity: 102%
RPS6KB2 (human)
  residual activity: 104%
MAPK12 (human)
  residual activity: 61.9%
TAOK3 (human)
  residual activity: 95.9%
SGK2 (human)
  residual activity: 97.1%
WEE1 (human)
  residual activity: 92.9%

## CC(C)n1cnc2c(Nc3cccc(Cl)c3)nc(NCCO)nc21
MAPK14 (human)
  residual activity: 90.7%
YES1 (human)
  residual activity: 33.7%
CAMK1D (human)
  residual activity: 98.1%
NLK (human)
  residual activity: 102%
SRPK2 (human)
  residual activity: 37.1%
NEK11 (human)
  residual activity: 109%
DYRK2 (human)
  residual activity: 93.9%
PTK2 (human)
  residual activity: 68.9%
MST1R (human)
  residual activity: 101%
CSNK2A1 (human)
  residual activity: 83.8%
PDPK1 (human)
  residual activity: 96.8%
TGFBR1 (human)
  residual activity: 97.7%
TEK (human)
  residual activity: 97.4%
LTK (human)
  residual activity: 85.3%
CSNK1G2 (human)
  residual activity: 20.6%
PRKCB2 (human)
  residual activity: 99.7%
LRRK2 (human)
  residual activity: 72.8%
CAMK4 (human)
  residual activity: 101%
MAP3K9 (human)
  residual activity: 27.2%
SRMS (human)
  residual activity: 85.1%
HCK (human)
  residual activity: 78%
MAPK8 (human)
  residual activity: 94.8%
GRK5 (human)
  residual activity: 99.4%
WNK2 (human)
  residual activity: 93.6%
TYRO3 (human)
  residual activity: 92.7%
MELK (human)
  residual activity: 59.7%
PRKCZ (human)
  residual activity: 97.8%
SIK2 (human)
  residual activity: 107%
FGFR2 (human)
  residual activity: 94.5%
MAPK10 (human)
  residual activity: 101%
PAK4 (human)
  residual activity: 105%
TSSK1B (human)
  residual activity: 91.9%
NEK2 (human)
  residual activity: 97.6%
RPS6KA1 KD1 KD2 (human)
  residual activity: 69.1%
PKN1 (human)
  residual activity: 101%
CAMKK1 (human)
  residual activity: 88.2%
CDK4 CCND1 (human)
  residual activity: 77%
RPS6KB2 (human)
  residual activity: 97%
MAPK12 (human)
  residual activity: 102%
TAOK3 (human)
  residual activity: 91.8%
SGK2 (human)
  residual activity: 97.4%
WEE1 (human)
  residual activity: 98.9%

## Cc1cc2ncc(-c3ccccc3)nc2cc1C
MAPK14 (human)
  residual activity: 103%
YES1 (human)
  residual activity: 102%
CAMK1D (human)
  residual activity: 100%
NLK (human)
  residual activity: 92.8%
SRPK2 (human)
  residual activity: 95.3%
NEK11 (human)
  residual activity: 104%
DYRK2 (human)
  residual activity: 95.9%
PTK2 (human)
  residual activity: 92.5%
MST1R (human)
  residual activity: 99.4%
CSNK2A1 (human)
  residual activity: 102%
PDPK1 (human)
  residual activity: 103%
TGFBR1 (human)
  residual activity: 94.7%
TEK (human)
  residual activity: 99.7%
LTK (human)
  residual activity: 90.3%
CSNK1G2 (human)
  residual activity: 86.5%
PRKCB2 (human)
  residual activity: 124%
LRRK2 (human)
  residual activity: 94.4%
CAMK4 (human)
  residual activity: 98.3%
MAP3K9 (human)
  residual activity: 92.6%
SRMS (human)
  residual activity: 93.5%
HCK (human)
  residual activity: 90.1%
MAPK8 (human)
  residual activity: 101%
GRK5 (human)
  residual activity: 107%
WNK2 (human)
  residual activity: 98.8%
TYRO3 (human)
  residual activity: 90.9%
MELK (human)
  residual activity: 91.1%
PRKCZ (human)
  residual activity: 88.6%
SIK2 (human)
  residual activity: 87.4%
FGFR2 (human)
  residual activity: 108%
MAPK10 (human)
  residual activity: 103%
PAK4 (human)
  residual activity: 105%
TSSK1B (human)
  residual activity: 113%
NEK2 (human)
  residual activity: 75.7%
RPS6KA1 KD1 KD2 (human)
  residual activity: 99.2%
PKN1 (human)
  residual activity: 92.5%
CAMKK1 (human)
  residual activity: 98%
CDK4 CCND1 (human)
  residual activity: 101%
RPS6KB2 (human)
  residual activity: 98.7%
MAPK12 (human)
  residual activity: 87.3%
TAOK3 (human)
  residual activity: 96.2%
SGK2 (human)
  residual activity: 101%
WEE1 (human)
  residual activity: 105%

## CC(C)(C)c1nc2c3ccc(F)cc3c3c(=O)[nH]ccc3c2[nH]1
MAPK14 (human)
  residual activity: 93.5%
YES1 (human)
  residual activity: 76.1%
CAMK1D (human)
  residual activity: 81.6%
NLK (human)
  residual activity: 26.1%
SRPK2 (human)
  residual activity: 70.5%
NEK11 (human)
  residual activity: 92.4%
DYRK2 (human)
  residual activity: 62.5%
PTK2 (human)
  residual activity: 35.3%
MST1R (human)
  residual activity: 103%
CSNK2A1 (human)
  residual activity: 82.9%
PDPK1 (human)
  residual activity: 27%
TGFBR1 (human)
  residual activity: 102%
TEK (human)
  residual activity: 101%
LTK (human)
  residual activity: 20.6%
CSNK1G2 (human)
  residual activity: 100%
PRKCB2 (human)
  residual activity: 90.6%
LRRK2 (human)
  residual activity: 47.5%
CAMK4 (human)
  residual activity: 81.8%
MAP3K9 (human)
  residual activity: 20.4%
SRMS (human)
  residual activity: 98.7%
HCK (human)
  residual activity: 84.8%
MAPK8 (human)
  residual activity: 73.7%
GRK5 (human)
  residual activity: 72.9%
WNK2 (human)
  residual activity: 105%
TYRO3 (human)
  residual activity: 90.3%
MELK (human)
  residual activity: 5.23%
PRKCZ (human)
  residual activity: 93.2%
SIK2 (human)
  residual activity: 60.2%
FGFR2 (human)
  residual activity: 99.1%
MAPK10 (human)
  residual activity: 107%
PAK4 (human)
  residual activity: 105%
TSSK1B (human)
  residual activity: 37.3%
RPS6KA1 KD1 KD2 (human)
  residual activity: 38.6%
PKN1 (human)
  residual activity: 28.3%
CAMKK1 (human)
  residual activity: 81.4%
CDK4 CCND1 (human)
  residual activity: 85.6%
RPS6KB2 (human)
  residual activity: 102%
MAPK12 (human)
  residual activity: 97.9%
TAOK3 (human)
  residual activity: 50.3%
SGK2 (human)
  residual activity: 84.4%
WEE1 (human)
  residual activity: 87.4%
